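Five concentrations, 48 hours, 96-well plates. TGI is the concentration that stops growth completely.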
How the values were obtained:
Experiment in all cases: NCI-60 cell line screen, 48 h
HCT-15 colon = system: HCT-15 colon
MDA-MB-231 breast = system: MDA-MB-231 breast
U251 CNS = system: U251 CNS
T-47D breast = system: T-47D breast
CCRF-CEM leukemia = system: CCRF-CEM leukemia
ACHN renal = system: ACHN renal
LOX IMVI melanoma = system: LOX IMVI melanoma
UACC-62 melanoma = system: UACC-62 melanoma
A549 NSCLC = system: A549 NSCLC
SF-295 CNS = system: SF-295 CNS
K-562 leukemia = system: K-562 leukemia
UO-31 renal = system: UO-31 renal
SW-620 colon = system: SW-620 colon
SK-MEL-2 melanoma = system: SK-MEL-2 melanoma
NCI/ADR-RES ovarian = system: NCI/ADR-RES ovarian
KM12 colon = system: KM12 colon
SN12C renal = system: SN12C renal
HCT-116 colon = system: HCT-116 colon
RXF 393 renal = system: RXF 393 renal
OVCAR-8 ovarian = system: OVCAR-8 ovarian
MDA-N = system: MDA-N
SK-OV-3 ovarian = system: SK-OV-3 ovarian
CAKI-1 renal = system: CAKI-1 renal
MCF7 breast = system: MCF7 breast
TK-10 renal = system: TK-10 renal
HCC-2998 colon = system: HCC-2998 colon
SK-MEL-28 melanoma = system: SK-MEL-28 melanoma
SNB-75 CNS = system: SNB-75 CNS
HL-60(TB) leukemia = system: HL-60(TB) leukemia
SNB-19 CNS = system: SNB-19 CNS
HOP-62 NSCLC = system: HOP-62 NSCLC
OVCAR-5 ovarian = system: OVCAR-5 ovarian
SK-MEL-5 melanoma = system: SK-MEL-5 melanoma
A498 renal = system: A498 renal
RPMI-8226 leukemia = system: RPMI-8226 leukemia
OVCAR-4 ovarian = system: OVCAR-4 ovarian
DU-145 prostate = system: DU-145 prostate
OVCAR-3 ovarian = system: OVCAR-3 ovarian
PC-3 prostate = system: PC-3 prostate
786-0 renal = system: 786-0 renal
EKVX NSCLC = system: EKVX NSCLC
MALME-3M melanoma = system: MALME-3M melanoma
IGROV1 ovarian = system: IGROV1 ovarian
NCI-H522 lung = system: NCI-H522 lung
NCI-H23 lung = system: NCI-H23 lung
HOP-92 NSCLC = system: HOP-92 NSCLC
UACC-257 melanoma = system: UACC-257 melanoma
HS 578T breast = system: HS 578T breast
BT-549 breast = system: BT-549 breast
COLO 205 colon = system: COLO 205 colon
MOLT-4 leukemia = system: MOLT-4 leukemia
NCI-H460 lung = system: NCI-H460 lung
SF-268 CNS = system: SF-268 CNS
MDA-MB-435 = system: MDA-MB-435
HT29 colon = system: HT29 colon
M14 melanoma = system: M14 melanoma
SF-539 CNS = system: SF-539 CNS
NCI-H226 lung = system: NCI-H226 lung

In the case of COc1cc(/C=C2\N=C(c3ccccc3)N(c3nc4ccc(Sc5ccccc5)cc4[nH]3)C2=O)ccc1O, the TGI (HCT-15 colon) is reported as greater than 100 µM, the TGI (MDA-MB-231 breast) is reported as 60.4 µM and the TGI (U251 CNS) is reported as 43.7 µM. For the same molecule, the TGI (T-47D breast) was greater than 100 µM, the TGI (CCRF-CEM leukemia) was 55.3 µM and the TGI (ACHN renal) was 86 µM. For the same molecule, the TGI (LOX IMVI melanoma) was greater than 100 µM, the TGI (UACC-62 melanoma) was 53.3 µM and the TGI (A549 NSCLC) was greater than 100 µM. It also gave a TGI (SF-295 CNS) of 94.7 µM, a TGI (K-562 leukemia) of 37.3 µM and a TGI (UO-31 renal) greater than 100 µM. For the same molecule, the TGI (SW-620 colon) was greater than 100 µM, the TGI (SK-MEL-2 melanoma) was 30.6 µM and the TGI (NCI/ADR-RES ovarian) was 61 µM. For the same molecule, the TGI (KM12 colon) was 57.9 µM, the TGI (SN12C renal) was 97.5 µM and the TGI (HCT-116 colon) was 47.3 µM. For the same molecule, the TGI (RXF 393 renal) was greater than 100 µM, the TGI (OVCAR-8 ovarian) was greater than 100 µM and the TGI (MDA-N) was 28.5 µM. The TGI (SK-OV-3 ovarian) was greater than 100 µM, the TGI (CAKI-1 renal) was greater than 100 µM and the TGI (MCF7 breast) was 50.7 µM. For the same molecule, the TGI (TK-10 renal) was 53.5 µM, the TGI (HCC-2998 colon) was 29.3 µM and the TGI (SK-MEL-28 melanoma) was 75.3 µM. It also gave a TGI (SNB-75 CNS) greater than 100 µM, a TGI (HL-60(TB) leukemia) of 31.2 µM and a TGI (SNB-19 CNS) greater than 100 µM. The TGI (HOP-62 NSCLC) was greater than 100 µM, the TGI (OVCAR-5 ovarian) was greater than 100 µM and the TGI (SK-MEL-5 melanoma) was 28.1 µM. For the same molecule, the TGI (A498 renal) was 77.1 µM, the TGI (RPMI-8226 leukemia) was 47.8 µM and the TGI (OVCAR-4 ovarian) was greater than 100 µM. It also gave a TGI (DU-145 prostate) greater than 100 µM, a TGI (OVCAR-3 ovarian) greater than 100 µM and a TGI (PC-3 prostate) greater than 100 µM. For the same molecule, the TGI (786-0 renal) was 49 µM, the TGI (EKVX NSCLC) was greater than 100 µM and the TGI (MALME-3M melanoma) was 44.1 µM. It also gave a TGI (IGROV1 ovarian) greater than 100 µM, a TGI (NCI-H522 lung) of 48.3 µM and a TGI (NCI-H23 lung) greater than 100 µM. For the same molecule, the TGI (HOP-92 NSCLC) was greater than 100 µM, the TGI (UACC-257 melanoma) was 47.1 µM and the TGI (HS 578T breast) was greater than 100 µM. The TGI (BT-549 breast) was 53.7 µM, the TGI (COLO 205 colon) was 32.7 µM and the TGI (MOLT-4 leukemia) was 69.4 µM. The TGI (NCI-H460 lung) was 50 µM, the TGI (SF-268 CNS) was greater than 100 µM and the TGI (MDA-MB-435) was 23.2 µM. For the same molecule, the TGI (HT29 colon) was 38.7 µM and the TGI (M14 melanoma) was 33.6 µM.
CCOC(=O)/C=C\c1c(Cl)n(-c2ccccc2)c(=O)n(-c2ccccc2)c1=O gave a TGI (HCT-15 colon) of 39.7 µM, a TGI (MDA-MB-231 breast) of 36.3 µM and a TGI (U251 CNS) greater than 100 µM. For the same molecule, the TGI (T-47D breast) was 42.2 µM, the TGI (CCRF-CEM leukemia) was 58.7 µM and the TGI (ACHN renal) was 35.1 µM. For the same molecule, the TGI (LOX IMVI melanoma) was 50.6 µM, the TGI (UACC-62 melanoma) was 34.8 µM and the TGI (A549 NSCLC) was 60.1 µM. The TGI (SF-295 CNS) was 40.2 µM, the TGI (UO-31 renal) was 33.2 µM and the TGI (SW-620 colon) was 61.6 µM. The TGI (SK-MEL-2 melanoma) was 33.5 µM, the TGI (NCI/ADR-RES ovarian) was 72.7 µM and the TGI (KM12 colon) was 35.8 µM. It also gave a TGI (SN12C renal) of 36.4 µM, a TGI (HCT-116 colon) of 54.9 µM and a TGI (RXF 393 renal) of 32.9 µM. For the same molecule, the TGI (OVCAR-8 ovarian) was 34.7 µM, the TGI (MDA-N) was 31.8 µM and the TGI (SK-OV-3 ovarian) was 37.2 µM. It also gave a TGI (CAKI-1 renal) of 35.7 µM, a TGI (MCF7 breast) of 46 µM and a TGI (TK-10 renal) of 32.3 µM. The TGI (HCC-2998 colon) was 33.2 µM, the TGI (SF-539 CNS) was 31.8 µM and the TGI (SK-MEL-28 melanoma) was 41.1 µM. The TGI (SNB-75 CNS) was 29.2 µM, the TGI (HL-60(TB) leukemia) was 23.4 µM and the TGI (SNB-19 CNS) was 31.6 µM. For the same molecule, the TGI (HOP-62 NSCLC) was 40 µM, the TGI (OVCAR-5 ovarian) was 36.9 µM and the TGI (NCI-H226 lung) was 50.8 µM. For the same molecule, the TGI (A498 renal) was 50.8 µM, the TGI (OVCAR-4 ovarian) was greater than 100 µM and the TGI (DU-145 prostate) was 34.9 µM. It also gave a TGI (OVCAR-3 ovarian) of 36.1 µM, a TGI (PC-3 prostate) of 33.3 µM and a TGI (786-0 renal) of 39.6 µM. The TGI (EKVX NSCLC) was 48.5 µM, the TGI (MALME-3M melanoma) was 44 µM and the TGI (IGROV1 ovarian) was 36.2 µM. It also gave a TGI (NCI-H522 lung) of 46.5 µM, a TGI (NCI-H23 lung) of 41.7 µM and a TGI (HOP-92 NSCLC) of 36 µM. It also gave a TGI (UACC-257 melanoma) of 35.5 µM, a TGI (HS 578T breast) of 65.2 µM and a TGI (BT-549 breast) of 36.1 µM. For the same molecule, the TGI (COLO 205 colon) was 34.6 µM, the TGI (MOLT-4 leukemia) was 87.2 µM and the TGI (NCI-H460 lung) was 34.1 µM. The TGI (SF-268 CNS) was 44.7 µM, the TGI (MDA-MB-435) was 44.8 µM and the TGI (HT29 colon) was 38.4 µM. The TGI (M14 melanoma) was 33.7 µM.
With COc1ccc(OC)c2c1C(=O)C(=O)C(Cl)=C2O the TGI (HCT-15 colon) was greater than 100 µM, the TGI (MDA-MB-231 breast) was greater than 100 µM and the TGI (U251 CNS) was greater than 100 µM. It also gave a TGI (T-47D breast) greater than 100 µM, a TGI (CCRF-CEM leukemia) greater than 100 µM and a TGI (ACHN renal) greater than 100 µM. For the same molecule, the TGI (LOX IMVI melanoma) was greater than 100 µM, the TGI (UACC-62 melanoma) was greater than 100 µM and the TGI (A549 NSCLC) was greater than 100 µM. The TGI (SF-295 CNS) was greater than 100 µM, the TGI (K-562 leukemia) was greater than 100 µM and the TGI (UO-31 renal) was greater than 100 µM. It also gave a TGI (SW-620 colon) greater than 100 µM, a TGI (SK-MEL-2 melanoma) greater than 100 µM and a TGI (NCI/ADR-RES ovarian) greater than 100 µM. The TGI (KM12 colon) was greater than 100 µM, the TGI (HCT-116 colon) was greater than 100 µM and the TGI (RXF 393 renal) was greater than 100 µM. It also gave a TGI (OVCAR-8 ovarian) greater than 100 µM, a TGI (MDA-N) greater than 100 µM and a TGI (SK-OV-3 ovarian) greater than 100 µM. For the same molecule, the TGI (CAKI-1 renal) was greater than 100 µM, the TGI (MCF7 breast) was greater than 100 µM and the TGI (TK-10 renal) was greater than 100 µM. For the same molecule, the TGI (HCC-2998 colon) was greater than 100 µM, the TGI (SF-539 CNS) was greater than 100 µM and the TGI (SK-MEL-28 melanoma) was greater than 100 µM. It also gave a TGI (SNB-75 CNS) greater than 100 µM, a TGI (HL-60(TB) leukemia) greater than 100 µM and a TGI (SNB-19 CNS) greater than 100 µM. The TGI (HOP-62 NSCLC) was greater than 100 µM, the TGI (OVCAR-5 ovarian) was greater than 100 µM and the TGI (SK-MEL-5 melanoma) was greater than 100 µM. The TGI (NCI-H226 lung) was greater than 100 µM, the TGI (A498 renal) was greater than 100 µM and the TGI (RPMI-8226 leukemia) was greater than 100 µM. For the same molecule, the TGI (OVCAR-4 ovarian) was greater than 100 µM, the TGI (DU-145 prostate) was greater than 100 µM and the TGI (OVCAR-3 ovarian) was greater than 100 µM. It also gave a TGI (PC-3 prostate) greater than 100 µM, a TGI (786-0 renal) greater than 100 µM and a TGI (MALME-3M melanoma) greater than 100 µM. For the same molecule, the TGI (IGROV1 ovarian) was greater than 100 µM, the TGI (NCI-H522 lung) was greater than 100 µM and the TGI (NCI-H23 lung) was greater than 100 µM. It also gave a TGI (HOP-92 NSCLC) greater than 100 µM, a TGI (UACC-257 melanoma) greater than 100 µM and a TGI (HS 578T breast) greater than 100 µM. The TGI (BT-549 breast) was greater than 100 µM, the TGI (COLO 205 colon) was greater than 100 µM and the TGI (MOLT-4 leukemia) was greater than 100 µM. For the same molecule, the TGI (NCI-H460 lung) was greater than 100 µM, the TGI (SF-268 CNS) was greater than 100 µM and the TGI (MDA-MB-435) was greater than 100 µM. The TGI (HT29 colon) was greater than 100 µM and the TGI (M14 melanoma) was greater than 100 µM.

Reference: PubChem BioAssay (NCI)
